Reference: patent US4822790A, “1-Sulfo-2-oxoazetidine derivatives and their production” (Takeda Chemical Industries, Ltd., priority 1980, dated 1989)

Experiments:
[1] = target: T1, β-lactamase produced by Enterobacter cloacae PN 1282 (Enterobacter cloacae, UniProt P05364); test: Inhibitor concentration required to inhibit the β-lactamase (cephalosporinase) activity by 50%, micro-iodometric method; format: biochemical; conditions: 0.05M phosphate buffer (pH 7), 30° C., 10 min preincubation, cephalothin 0.1 mM, read-out: I50 (inhibitor concentration required to inhibit the enzyme activity by 50%) (converted)
T1 construct: cephalothin substrate, micro-iodometric
T1 sequence (P05364 21-381): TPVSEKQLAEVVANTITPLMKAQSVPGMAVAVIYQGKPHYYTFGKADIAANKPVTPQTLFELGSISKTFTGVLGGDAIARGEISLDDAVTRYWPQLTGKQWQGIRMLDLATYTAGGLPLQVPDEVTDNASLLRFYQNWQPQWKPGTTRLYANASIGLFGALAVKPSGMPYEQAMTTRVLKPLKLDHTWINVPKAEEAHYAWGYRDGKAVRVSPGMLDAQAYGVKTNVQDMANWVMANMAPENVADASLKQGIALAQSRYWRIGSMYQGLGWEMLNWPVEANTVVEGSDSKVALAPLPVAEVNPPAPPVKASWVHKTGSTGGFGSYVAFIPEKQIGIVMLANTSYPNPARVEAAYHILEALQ
Method: "Determination of the inhibitor concentration required to inhibit the enzyme activity by 50%"
The β-lactamase produced by Enterobacter cloacae PN 1282 is used as a typical example of cephalosporinase. The β-lactamase is incubated in 0.05M phosphate buffer (pH 7) with an appropriate dilution of an inhibitor preparation at 30° C. for 10 minutes. Cephalothin is then added in an amount sufficient to produce a final concentration of 0.1 mM, and the enzymatic reaction is allowed to proceed for 10 minutes. The enzyme activity is determined by the micro-iodometric method [Journal of general Microbiology, vol. 33, page 121 (1963)]. Hereinafter, the inhibitor concentration required to inhibit the enzyme activity by 50% is expressed as I50.

Escherichia coli 0-111 = test: Antibacterial test (MIC), Escherichia coli 0-111; format: cell-based; conditions: medium TSA
Excerpt: (§1) The following is media and compounds employed in the antibacterial test.
(§2) TSA=Trypticase soy agar [Baltimore Biologicals (U.S.A.)]
(§3) B-TSA=Blood trypticase soy agar

Klebsiella pneumoniae DT = test: Antibacterial test (MIC), Klebsiella pneumoniae DT; format: cell-based
Excerpt: as §1, §2, §3

[2] = system: Pseudomonas morganii IFO 3168; test: Antibacterial test (MIC), Pseudomonas morganii IFO 3168; format: cell-based; conditions: IFO3168, medium TSA, read-out: Minimum inhibitory concentration (MIC)
Excerpt: as §1, §2, §3

[3] = system: Proteus vulgaris IFO 3988; test: Antibacterial test (MIC), Proteus vulgaris IFO 3988; format: cell-based
Excerpt: as §1, §2, §3

[4] = system: Pseudomonas aeruginosa U 31; test: Antibacterial test (MIC), Pseudomonas aeruginosa U 31; format: cell-based; conditions: medium TSA
Excerpt: as §1, §2, §3

[5] = system: Pseudomonas aeruginosa IFO 3455; test: Antibacterial test (MIC), Pseudomonas aeruginosa IFO 3455; format: cell-based; conditions: medium TSA
Excerpt: as §1, §2, §3

Candida albicans TA = test: Antibacterial test (MIC), Candida albicans TA; format: cell-based; conditions: medium TSA
Excerpt: as §1, §2, §3

Escherichia coli T-7 = test: Antibacterial test (MIC), Escherichia coli T-7; format: cell-based; conditions: medium TSA
Excerpt: as §1, §2, §3

[6] = system: Streptococcus mitis America; test: Antibacterial test (MIC), Streptococcus mitis America; format: cell-based; conditions: medium B-TSA
Excerpt: as §1, §2, §3

[7] = system: Staphylococcus aureus FDA209P; test: Antibacterial test (MIC), Staphylococcus aureus FDA209P; format: cell-based
Excerpt: as §1, §2, §3

[8] = system: Streptococcus faecium IFO 3128; test: Antibacterial test (MIC), Streptococcus faecium IFO 3128; format: cell-based; conditions: medium B-TSA
Excerpt: as §1, §2, §3

[9] = system: Proteus mirabilis IFO 3849; test: Antibacterial test (MIC), Proteus mirabilis IFO 3849; format: cell-based; conditions: medium TSA
Excerpt: as §1, §2, §3

[10] = system: Staphylococcus aureus 1840; test: Antibacterial test (MIC), Staphylococcus aureus 1840; format: cell-based; conditions: medium TSA
Excerpt: as §1, §2, §3

[11] = system: Streptococcus pneumoniae Type I; test: Antibacterial test (MIC), Streptococcus pneumoniae Type I; format: cell-based; conditions: medium B-TSA
Excerpt: as §1, §2, §3

[12] = system: Proteus morganii IFO 3168; test: Antibacterial test (MIC), Proteus morganii IFO 3168; format: cell-based; conditions: medium TSA
Excerpt: as §1, §2, §3

[13] = system: Streptococcus pyogenes E-14; test: Antibacterial test (MIC), Streptococcus pyogenes E-14; format: cell-based; conditions: medium B-TSA
Excerpt: as §1, §2, §3

[14] = system: Streptococcus pyogenes S-8; test: Antibacterial test (MIC), Streptococcus pyogenes S-8; format: cell-based; conditions: medium B-TSA
Excerpt: as §1, §2, §3

[15] = system: Acinetobacter calcoaceticus IFO 13006; test: Antibacterial test (MIC), Acinetobacter calcoaceticus IFO 13006; format: cell-based; conditions: medium TSA
Excerpt: as §1, §2, §3

[16] = system: Corynebacterium diphtheriae Toronto; test: Antibacterial test (MIC), Corynebacterium diphtheriae Toronto; format: cell-based; conditions: medium B-TSA
Excerpt: as §1, §2, §3

[17] = system: Citrobacter freundii IFO 12681; test: Antibacterial test (MIC), Citrobacter freundii IFO 12681; format: cell-based; conditions: medium TSA
Excerpt: as §1, §2, §3

[18] = system: Bordetella bronchiseptica Sagami; test: Antibacterial test (MIC), Bordetella bronchiseptica Sagami; format: cell-based; conditions: medium B-TSA
Excerpt: as §1, §2, §3

[19] = system: Enterobacter cloacae IFO 12937; test: Antibacterial test (MIC), Enterobacter cloacae IFO 12937; format: cell-based; conditions: medium TSA
Excerpt: as §1, §2, §3

[20] = system: Staphylococcus aureus 308A-1; test: Antibacterial test (MIC), Staphylococcus aureus 308A-1; format: cell-based; conditions: medium TSA
Excerpt: as §1, §2, §3

[21] = system: Serratia marcescens IFO 12648; test: Antibacterial test (MIC), Serratia marcescens IFO 12648; format: cell-based; conditions: medium TSA
Excerpt: as §1, §2, §3

[22] = system: Escherichia coli NIHJ JC-2; test: Antibacterial test (MIC), Escherichia coli NIHJ JC-2; format: cell-based; conditions: medium TSA
Excerpt: as §1, §2, §3

## CON=C(C(=O)N[C@@H]1C(=O)N(S(=O)(=O)O)[C@@H]1SC)c1csc(N)n1
[1]
  IC50: 0.759 µM

## CS[C@@H]1[C@H](NC(=O)c2c(-c3c(Cl)cccc3Cl)noc2C)C(=O)N1S(=O)(=O)O
[1]
  IC50: 0.0965 µM

## CS[C@@H]1[C@H](NC(=O)C(=NOC(C)(C)C(=O)O)c2csc(N)n2)C(=O)N1S(=O)(=O)O
[1]
  IC50: 0.406 µM

## CON=C(C(=O)N[C@@H]1C(=O)N(S(=O)(=O)O)[C@H]1Sc1ccccc1)c1csc(N)n1
[1]
  IC50: 0.059 µM

## CCN1CCN(C(=O)N[C@@H](C(=O)NC2(OC)CN(S(=O)(=O)O)C2=O)c2ccccc2)C(=O)C1=O (single isomer, unassigned) [Compound C, Sodium 3-[D(-)-N-(4-ethyl-2,3-dioxo-1-piperazinocarbonyl)phenylglycinamido]-3-methoxy-2-oxoazetidine-1-sulfonate]
Escherichia coli 0-111; Escherichia coli, 0111, read-out: Minimum inhibitory concentration (MIC)
  MIC: 12.5 mg/L
Klebsiella pneumoniae DT; Klebsiella pneumoniae, read-out: Minimum inhibitory concentration (MIC)
  MIC: 12.5 mg/L
[2]
  MIC: > 100 mg/L
[3]; Proteus vulgaris, IFO3988, read-out: Minimum inhibitory concentration (MIC)
  MIC: 12.5 mg/L

## O=C(NC1CN(S(=O)(=O)[O-])C1=O)C(NC(=O)N1CCN(N=Cc2ccco2)C1=O)c1cccs1.[Na+] (stereo not drawn) [Compound L, Sodium 3-[2-[(2-oxo-3-furfurylideneaminoimidazolidin-1-yl)-carboxamido]-2-thienylacetamido]-2-oxoazetidine-1-sulfonate]
[4]
  Minimum inhibitory concentration (MIC): > 100 mg/L
Escherichia coli 0-111
  Minimum inhibitory concentration (MIC): < 0.1 mg/L
[5]
  Minimum inhibitory concentration (MIC): 3.13 mg/L
Candida albicans TA
  Minimum inhibitory concentration (MIC): > 100 mg/L
Escherichia coli T-7
  Minimum inhibitory concentration (MIC): > 100 mg/L
Klebsiella pneumoniae DT; medium TSA
  Minimum inhibitory concentration (MIC): < 0.1 mg/L
[6]
  Minimum inhibitory concentration (MIC): 6.25 mg/L
[7]; medium B-TSA
  Minimum inhibitory concentration (MIC): 6.25 mg/L
[7]; medium TSA
  Minimum inhibitory concentration (MIC): 6.25 mg/L
[8]
  Minimum inhibitory concentration (MIC): > 100 mg/L
[9]
  Minimum inhibitory concentration (MIC): 0.78 mg/L
[10]
  Minimum inhibitory concentration (MIC): 25 mg/L
[11]
  Minimum inhibitory concentration (MIC): 1.56 mg/L
[12]
  Minimum inhibitory concentration (MIC): 12.5 mg/L
[13]
  Minimum inhibitory concentration (MIC): 0.78 mg/L
[14]
  Minimum inhibitory concentration (MIC): 0.78 mg/L
[15]
  Minimum inhibitory concentration (MIC): 50 mg/L
[16]
  Minimum inhibitory concentration (MIC): 1.56 mg/L
[17]
  Minimum inhibitory concentration (MIC): 1.56 mg/L
[18]
  Minimum inhibitory concentration (MIC): > 100 mg/L
[19]
  Minimum inhibitory concentration (MIC): 25 mg/L
[20]
  Minimum inhibitory concentration (MIC): 3.13 mg/L
[21]
  Minimum inhibitory concentration (MIC): 1.56 mg/L
[3]; medium TSA
  Minimum inhibitory concentration (MIC): 0.2 mg/L
[22]
  Minimum inhibitory concentration (MIC): 1.56 mg/L
